In patent publication US20220186286A1, “FLUORESCENT PROBE FOR DETECTING ACTIVATION OF SIALIDASE” (The University of Tokyo, priority 2019, published 2022):

Tests used:
[1] = tested on: neuraminidase (from Arthrobacter ureafaciens); assay: dynamic (kinetic) parameters of the probes as neuraminidase substrates; format: biochemical; conditions: for Km / Vmax / kcat: 50 mM NaOAc, 2 mM CaCl2, 100 μg/mL BSA buffer (pH 6.5), 60 minutes; for kcat/Km relative to that of 4-MUNANA: fold larger than 4-MUNANA
Method: The probe was dissolved in 200 μL (total volume) of 50 mM NaOAc, 2 mM CaCl2, 100 μg/mL BSA buffer (pH 6.5) at various concentrations. A neuraminidase (from Arthrobacter ureafaciens, […]) was added, and the increase in fluorescence for 60 minutes was evaluated. Concerning the dynamic parameter Vmax and Km, the corrected data were calculated using the following formula.
V0 is the steady state speed of the probe substrate rotation by the neuraminidase, Vmax is the maximum speed (mM/min), X is the probe concentration in the reaction mixture (mM), and Km is the Michaelis constant (mM) at which the reaction speed is half of Vmax. Formula 1 was fitted to the data using KaleidaGraph 4.5.2 software (Synergy Software).
The dynamic parameters of HMRef-Neu5Ac and HMRef-S-Neu5Ac were determined in accordance with the method previously described by Govorkova et al., and compared to that of a commercial sialidase substrate, 4-MUNANA.

[2] = photochemical properties (absorption, emission, quantum yield, pKa, pKcycl); format: physicochemical; conditions: for pKcycl: spiro ring formation
Method: UV-vis spectra were obtained with a spectrophotometer, Shimadzu UV-2450.
Fluorescence spectra were obtained with Hitachi F-7000. The absolute fluorescence quantum efficiency was measured using an absolute PL quantum yield measuring apparatus, Quantuarus-QY (Hamamatsu Photonics K. K.). The probe was dissolved in dimethyl sulfoxide (DMSO, grade for fluorometry, DOJINDO LABORATORIES) to obtain a stock solution.
(§1) The optical property of the probe was acquired in a 0.2 M sodium phosphate buffer, a 100 mM NaOAc, 2 mM CaCl2, pH 6.5 buffer, or a 50 mM NaOAc, 2 mM CaCl2, 100 μg/mL BSA, pH 7.4 buffer. For an in vitro enzymatic reaction, the probe DMSO stock solution was diluted with a 100 mM NaOAc, 2 mM CaCl2, pH 7.4 buffer so that the final concentration was 1 μM. First, the fluorescence of the solution before adding a sialidase was measured every second (excitation wavelength: 490 nm, emission wavelength: 520 nm). Then, a neuraminidase from Arthrobacter ureafaciens (0.01 U) was used for this assay.

[3] = tested on: neuraminidase from Arthrobacter ureafaciens; assay: in vitro enzymatic reaction with sialidase, change in fluorescence intensity over time; format: biochemical; conditions: for increase in the fluorescence in reaction with the sialidase: 1 μM probe, 0.01 U enzyme, 100 mM NaOAc 2 mM CaCl2 buffer pH 7.4, 37° C.; for change in the fluorescence in the absence of enzyme: identical reaction without enzyme, pH 7.4, 37° C.
Method: as §1
The fluorescence intensity of HMRef-Neu5Ac obtained in Synthesis Example 1 was changed through an enzymatic reaction with a neuraminidase (Arthrobacter ureafaciens), and the change in the fluorescence intensity of HMRef-Neu5Ac over time was examined. HMRef-Neu5Ac was dissolved in a 100 mM NaOAc 2 mM CaCl2 buffer (pH 7.4) to prepare a 1 μM solution, and 0.01 U of the enzyme was added 60 seconds after the start of measurement. At the time of measurement, the temperature was 37° C., and the concentration of an enzyme inhibitor (DANA) was 100 μM.
In the same manner as in the evaluation of HMRef-Neu5Ac, the reaction with a sialidase and the absorption spectrum at each pH were acquired for HMRef-S-Neu5Ac (FIGS. 3a and 3b).

[4] = stability of the probe at various pH values (fluorescence intensity and absorption spectra over time); format: physicochemical; conditions: for stability: change in fluorescence intensity over time at various pH values: 0.2 M sodium phosphate buffer, 2 hours, ex/em 485 nm/535 nm; for change of absorption spectra 1.5 hours after dissolution: 0.2 M sodium phosphate buffers of various pH, immediately after vs 1.5 hours after dissolution
Method: HMRef-Neu5Ac was dissolved in 0.2 M sodium phosphate buffers having various pH values, and the absorption spectra were measured immediately after and 1.5 hours after the dissolution.
The stability of HMRef-Neu5Ac and that of HMRef-S-Neu5Ac were directly compared by recording the changes in fluorescence intensity over time at a pH within a range. The initial fluorescence intensity values of both the probes depend on the pH value according to the pKcycl values of the probes. That is, the lower the pH is, the larger the initial fluorescence intensity value is.
The measurement was performed in 0.2 M sodium phosphate buffer at 37° C. and measurements were taken every 5 minutes. In each measurement, excitation/emission wavelengths of 485 nm/535 nm were used.

[5] = pH 2, 0.2M sodium phosphate buffer
[6] = pH 7.4, 0.2M sodium phosphate buffer

Compound	Km [1]	Vmax [1]	kcat [1]	pKa ([2]; 0.2 M sodium phosphate buffer)	Absorption max. [2, 5]	Emission max. [2, 5]	fluorescence quantum yield (absolute fluorescence quantum efficiency) [2, 5]	Absorption max. [2, 6]	Emission max. [2, 6]	fluorescence quantum yield (absolute fluorescence quantum efficiency) [2, 6]	pKcycl [2]	increase in the fluorescence in reaction with the sialidase [3]	change in the fluorescence in the absence of enzyme [3]	kcat/Km relative to that of 4-MUNANA [1]	stability: change in fluorescence intensity over time at various pH values ([4]; 37° C.)	change of absorption spectra 1.5 hours after dissolution [4]	time to complete hydrolysis ([4]; pH 2 and pH 4, 0.2 M sodium phosphate buffer, 37° C.)
CC(=O)N[C@@H]1[C@@H](O)C[C@](Oc2ccc3c(C)cc(=O)oc3c2)(C(=O)O)O[C@H]1C(O)[C@H](O)CO (stereo partly drawn) [4-MUNANA, 2′-(4-methylumbelliferyl)-α-D-N-acetylneuraminic acid, reference compound]	37 µM	1.73 nM/s	2.6 s⁻¹	–	–	–	–	–	–	–	–	–	–	–	–	–	–
O=c1ccc2c(-c3ccccc3CO)c3ccc(NCC(F)(F)F)cc3oc-2c1 [HMRef, reference compound]	–	–	–	4.4	479 nm	515 nm	0.716	498 nm	518 nm	0.777	10.2	–	–	–	–	–	–
CC(=O)N[C@H]1[C@H]([C@H](O)[C@H](O)CO)O[C@@](Oc2ccc3c(c2)Oc2cc(NCC(F)(F)F)ccc2C32OCc3ccccc32)(C(=O)O)C[C@@H]1O (some centres unmarked) [HMRef-Neu5Ac]	19 µM	13.5 nM/s	20.6 s⁻¹	–	484 nm	522 nm	0.650	–	–	0.323	4.8	up to 40 fold	3 fold	~16 fold	clear instability at all the pH values	greatly changed in shape	about 40 minutes
CC(=O)N[C@H]1[C@H]([C@H](O)[C@H](O)CO)O[C@@](Oc2ccc(COc3ccc4c(c3)Oc3cc(NCC(F)(F)F)ccc3C43OCc4ccccc43)cc2)(C(=O)O)C[C@@H]1O (some centres unmarked) [HMRef-S-Neu5Ac]	11 µM	7.03 nM/s	10.7 s⁻¹	–	484 nm	522 nm	0.537	–	–	0.271	5.3	130 fold	remained at a constant low level	~13 fold	changed little over the time	changed little	–
